Experiment [1] relates to normal human neonatal foreskin epidermal keratinocytes (NHEK-F). In words: Cell proliferation inhibition test. Format: cell-based. As to conditions: Keratinocyte, 72 h, NHEK-F cells, three days incubation, ATPlite or CellTiterGlo, read-out: IC50 (concentration of the compound at which the cell count is reduced by 50%). In a few lines:
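IC50 is the compound level halving cell count relative to untreated wells, with counts from ATP-based luminescence (ATPlite or CellTiterGlo). Readout followed 3 days of compound exposure of overnight-attached neonatal foreskin keratinocytes (2×10^3/well, Humedia-EG2 medium).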

Experiment [2] deals with TPA-induced ear edema and acanthosis in Balb/c mice. Briefly: Mouse TPA-induced ear-swelling model. It is filed as in vivo. The note with it: topical, 240 h, 1% w/v solution, 20 μL applied to ear once a day from day 0 to day 9, female Balb/c mice, read-out: Inhibition rate of change in ear thickness on day 10. As for the experimental part: Seven-week-old female Balb/c mice (Charles River Laboratories Japan) were used. 20 μL of a 20 ng/mL solution of TPA (Wako Pure Chemical Industries, 162-23591) dissolved in 5% DMSO/acetone was applied to the outer side of the mouse ear on day 0, day 2, day 4, day 7 and day 9 to induce ear edema and acanthosis. The test compound was dissolved in a 5% DMSO/acetone solution (concentration: 1% w/v) and 20 μL of the resulting solution was applied to the outer side of the ear once a day from day 0 to day 9. For the control group, a 5% DMSO/acetone solution was similarly applied. The TPA solution and the test compound solution were mixed and applied on the days for TPA application (day 0, day 2, day 4, day 7 and day 9). The ear thickness was chronologically measured on days 0-4 and days 7-10 using a micrometer (Mitutoyo, MDC-25MJT). The change in ear thickness and the inhibition rate were determined by the following formulas. Change in ear thickness=(ear thickness measured on day 10)−(ear thickness measured on day 0 before TPA application) Inhibition rate (%)=100−(change in ear thickness for test compound group/change in ear thickness for control group)×100

Consider `CC(C)Cn1ccc2cc(Nc3ncc(C4CC4)cc3C(=O)O)ccc21` [Example 126, 2-((1-isobutyl-1H-indol-5-yl)amino)-5-cyclopropylnicotinic acid], for which the IC50 in experiment [1] is not above 10 nM. Further, the inhibition in vivo at 1 % strength in experiment [2] was not below 20%.

In the case of `O=C(O)c1cc(C2CCCC2)cnc1Nc1ccc2c(ccn2Cc2ccccc2)c1` [Example 128, 2-((1-benzyl-1H-indol-5-yl)amino)-5-cyclopentylnicotinic acid], in experiment [2], the inhibition in vivo at 1 % strength is not below 20%.

With `O=C(O)c1cc(C2CC2)cnc1Nc1ccc2c(ccn2CC2CCCCC2)c1` [Example 130, 2-((1-(cyclohexylmethyl)-1H-indol-5-yl)amino)-5-cyclopropylnicotinic acid], the IC50 in experiment [1] is not above 10 nM. In experiment [2], the inhibition in vivo at 1 % strength was not below 20%.

Turning to `O=C(O)c1cc(C2CC2)cnc1Nc1ccc2c(ccn2CC2CCC2)c1` [Example 133, 2-((1-(cyclobutylmethyl)-1H-indol-5-yl)amino)-5-cyclopropylnicotinic acid], the IC50 in experiment [1] was not above 10 nM. Moreover, the inhibition in vivo at 1 % strength in experiment [2] was not below 20%.

For `O=C(O)c1cc(C2CC2)cnc1Nc1ccc2c(ccn2CC2CCCC2)c1` [Example 138, 2-((1-(cyclopentylmethyl)-1H-indol-5-yl)amino)-5-cyclopropylnicotinic acid], the IC50 in experiment [1] was not above 10 nM. For the same compound, the inhibition in vivo at 1 % strength in experiment [2] was not below 20%.

Regarding `CCn1c(-c2ccccc2)cc2cc(Nc3ncc(C4CC4)cc3C(=O)O)ccc21` [Example 142, 5-cyclopropyl-2-((1-ethyl-2-phenyl-1H-indol-5-yl)amino)nicotinic acid], the IC50 in experiment [1] lay in the range of 10 to 100 nM. Besides, in experiment [2], the inhibition in vivo at 1 % strength is not below 20%.

As for `CS(=O)(=O)NC(=O)c1cc(C2CC2)cnc1Nc1ccc2c(ccn2Cc2ccccc2)c1` [Example 149, 2-((1-benzyl-1H-indol-5-yl)amino)-5-cyclopropyl-N-(methylsulfonyl)nicotinamide], the IC50 in experiment [1] was 10 to 100 nM. The inhibition in vivo at 1 % strength in experiment [2] was not below 20%.

As to `Cn1cc(-c2ccccc2)c2cc(Nc3ncc(C4CC4)cc3C(=O)O)ccc21` [Example 153], the IC50 in experiment [1] lay in the range of 10 to 100 nM. Moreover, in experiment [2], the inhibition in vivo at 1 % strength is not below 20%.

Take `Cn1ccc2cc(Nc3ncc(C4CC4)cc3C(=O)O)cc(-c3cccc(-c4ccccc4)c3)c21` [Example 189, 2-((7-([1,1′-biphenyl]-3-yl)-1-methyl-1H-indol-5-yl)amino)-5-cyclopropylnicotinic acid]: the IC50 in experiment [1] is not above 10 nM. Moreover, the inhibition in vivo at 1 % strength in experiment [2] is not below 20%.

Regarding `Cc1ccc(Nc2ccc3c(ccn3Cc3ccccc3)c2)c(C(=O)O)c1` [Example 206, 2-((1-benzyl-1H-indol-5-yl)amino)-5-methylbenzoic acid], in experiment [1], the IC50 was not above 10 nM. The inhibition in vivo at 1 % strength in experiment [2] was not below 20%.

In the case of `O=C(O)c1cc(C2CC2)cnc1Nc1cccc2c1ccn2Cc1ccccc1` [Example 208, 2-((1-benzyl-1H-indol-4-yl)amino)-5-cyclopropylnicotinic acid], in experiment [1], the IC50 was in the range of 10 to 100 nM. The inhibition in vivo at 1 % strength in experiment [2] is not below 20%.

Take `Cn1ccc2cc(Nc3ncc(C4CC4)cc3C(=O)O)cc(-c3ccccc3)c21` [Example 222, 5-cyclopropyl-2-((1-methyl-7-phenyl-1H-indol-5-yl)amino)nicotinic acid]: the IC50 in experiment [1] was not above 10 nM. The inhibition in vivo at 1 % strength in experiment [2] was not below 20%.

For the compound `CC(C)Cn1ccc2cc(Nc3ncc(C4CC4)cc3C(=O)O)cc(-c3ccccc3)c21` [Example 224, 5-cyclopropyl-2-((1-isobutyl-7-phenyl-1H-indol-5-0)amino)nicotinic acid], the IC50 in experiment [1] is not above 10 nM. The inhibition in vivo at 1 % strength in experiment [2] is not below 20%.

Consider `O=C(O)c1cc(C2CC2)cnc1Nc1ccc2c(ccn2-c2ccc(F)cc2)c1` [Example 233, 5-cyclopropyl-2-((1-(4-fluorophenyl)-1H-indol-5-yl)amino)nicotinic acid], for which, in experiment [1], the IC50 was not above 10 nM. The inhibition in vivo at 1 % strength in experiment [2] was not below 20%.

`Cn1cc(C2CCCCC2)c2cc(Nc3ncc(C4CC4)cc3C(=O)O)ccc21` [Example 612, 2-((3-cyclohexyl-1-methyl-1H-indol-5-yl)amino)-5-cyclopropylnicotinic acid]: the IC50 in experiment [1] lay in the range of 10 to 100 nM.

As for `Cn1cc(C2CCCC2)c2cc(Nc3ncc(C4CC4)cc3C(=O)O)ccc21` [Example 614, 2-((3-cyclopentyl-1-methyl-1H-indol-5-yl)amino)-5-cyclopropylnicotinic acid], the IC50 in experiment [1] is 10 to 100 nM.

As to `O=C(O)c1cc(C2CC2)cnc1Nc1ccc2c(ccn2CCCC(F)(F)F)c1` [Example 616, 5-cyclopropyl-2-((1-(4,4,4-trifluorobutyl)-1H-indol-5-yl)amino)nicotinic acid], in experiment [1], the IC50 was 10 to 100 nM.

With `O=C(O)c1cc(C2CC2)cnc1Nc1ccc2c(ccn2CCCc2ccccc2)c1` [Example 618, 5-cyclopropyl-2-((1-(3-phenylpropyl)-1H-indol-5-yl)amino)nicotinic acid], the IC50 in experiment [1] was not above 10 nM.

Take `COc1ccc(Cn2ccc3cc(Nc4ncc(C5CC5)cc4C(=O)O)ccc32)cc1` [Example 623, 5-cyclopropyl-2-((1-(4-methoxybenzyl)-1H-indol-5-yl)amino)nicotinic acid]: in experiment [1], the IC50 lay within 10 to 100 nM.

As for `Cn1ccc2cc(Nc3ncc(Cl)cc3C(=O)O)cc(-c3ccccc3)c21` [Example 625, 5-chloro-2-((1-methyl-7-phenyl-1H-indol-5-yl)amino)nicotinic acid], in experiment [1], the IC50 is 10 to 100 nM.

`O=C(O)c1cc(Br)cnc1Nc1ccc2c(ccn2Cc2cccc(F)c2)c1` [Example 627, 5-bromo-2-((1-(3-fluorobenzyl)-1H-indol-5-yl)amino)nicotinic acid]: the IC50 in experiment [1] lay within 10 to 100 nM.

For `Cc1cc(Nc2ncc(C3CC3)cc2C(=O)O)cc2ccn(Cc3ccccc3)c12` [Example 629, 2-((1-benzyl-7-methyl-1H-indol-5-yl)amino)-5-cyclopropylnicotinic acid], the IC50 in experiment [1] is not above 10 nM.

As to `COC(=O)c1cc(C2CC2)cnc1Nc1ccc2c(c1)c(-c1cccc(C#N)c1)cn2C` [Example 630], the IC50 in experiment [1] was 100 to 1000 nM.

For the compound `O=C(O)c1cc(C2CC2)cnc1Nc1ccc2c(ccn2Cc2c(F)cccc2F)c1` [Example 634, 5-cyclopropyl-2-((1-(2,6-difluorobenzyl)-1H-indol-5-yl)amino)nicotinic acid], in experiment [1], the IC50 was not above 10 nM.

On to `CCCn1ccc2cc(Nc3ncc(C4CC4)cc3C(=O)O)ccc21` [Example 636, 5-cyclopropyl-2-((1-propyl-1H-indol-5-yl)amino)nicotinic acid], for which the IC50 in experiment [1] is 10 to 100 nM.

`CCCCCCCn1ccc2cc(Nc3ncc(C4CC4)cc3C(=O)O)ccc21` [Example 640, 5-cyclopropyl-2-((1-heptyl-1H-indol-5-yl)amino)nicotinic acid]: the IC50 in experiment [1] lay in the range of 10 to 100 nM.

On to `O=C(O)c1cc(C2CC2)cnc1Nc1ccc2c(ccn2Cc2cc(F)c(F)cc2F)c1` [Example 643, 5-cyclopropyl-2-((1-(2,4,5-trifluorobenzyl)-1H-indol-5-yl)amino)nicotinic acid], for which the IC50 in experiment [1] was not above 10 nM.

In the case of `O=C(O)c1cc(Cl)cnc1Nc1ccc2c(ccn2Cc2cccc(F)c2)c1` [Example 645, 5-chloro-2-((1-(3-fluorobenzyl)-1H-indol-5-yl)amino)nicotinic acid], the IC50 in experiment [1] fell in the range of 10 to 100 nM.

Take `Cn1cc(-c2ccccc2)c2cc(Nc3ncc(Cl)cc3C(=O)O)ccc21` [Example 647, 5-chloro-2-((1-methyl-3-phenyl-1H-indol-5-yl)amino)nicotinic acid]: the IC50 in experiment [1] fell in the range of 10 to 100 nM.

The values are drawn from patent US9624215B2, “Amine derivative or salt thereof” (TOYAMA CHEMICAL CO., LTD., priority 2012, dated 2017).
